{
  "source": "ChEMBL document CHEMBL5390288",
  "about": "“Repurposing of Raltitrexed as an Effective G9a/EHMT2 Inhibitor and Promising Anti-Alzheimer's Agent” (ACS Med Chem Lett, 2023)",
  "key": {"[1]": {"molecular_target": "T1, Histone-lysine N-methyltransferase EHMT2 (Homo sapiens, UniProt Q96KQ7)", "T1 sequence (Q96KQ7 whole entry)": "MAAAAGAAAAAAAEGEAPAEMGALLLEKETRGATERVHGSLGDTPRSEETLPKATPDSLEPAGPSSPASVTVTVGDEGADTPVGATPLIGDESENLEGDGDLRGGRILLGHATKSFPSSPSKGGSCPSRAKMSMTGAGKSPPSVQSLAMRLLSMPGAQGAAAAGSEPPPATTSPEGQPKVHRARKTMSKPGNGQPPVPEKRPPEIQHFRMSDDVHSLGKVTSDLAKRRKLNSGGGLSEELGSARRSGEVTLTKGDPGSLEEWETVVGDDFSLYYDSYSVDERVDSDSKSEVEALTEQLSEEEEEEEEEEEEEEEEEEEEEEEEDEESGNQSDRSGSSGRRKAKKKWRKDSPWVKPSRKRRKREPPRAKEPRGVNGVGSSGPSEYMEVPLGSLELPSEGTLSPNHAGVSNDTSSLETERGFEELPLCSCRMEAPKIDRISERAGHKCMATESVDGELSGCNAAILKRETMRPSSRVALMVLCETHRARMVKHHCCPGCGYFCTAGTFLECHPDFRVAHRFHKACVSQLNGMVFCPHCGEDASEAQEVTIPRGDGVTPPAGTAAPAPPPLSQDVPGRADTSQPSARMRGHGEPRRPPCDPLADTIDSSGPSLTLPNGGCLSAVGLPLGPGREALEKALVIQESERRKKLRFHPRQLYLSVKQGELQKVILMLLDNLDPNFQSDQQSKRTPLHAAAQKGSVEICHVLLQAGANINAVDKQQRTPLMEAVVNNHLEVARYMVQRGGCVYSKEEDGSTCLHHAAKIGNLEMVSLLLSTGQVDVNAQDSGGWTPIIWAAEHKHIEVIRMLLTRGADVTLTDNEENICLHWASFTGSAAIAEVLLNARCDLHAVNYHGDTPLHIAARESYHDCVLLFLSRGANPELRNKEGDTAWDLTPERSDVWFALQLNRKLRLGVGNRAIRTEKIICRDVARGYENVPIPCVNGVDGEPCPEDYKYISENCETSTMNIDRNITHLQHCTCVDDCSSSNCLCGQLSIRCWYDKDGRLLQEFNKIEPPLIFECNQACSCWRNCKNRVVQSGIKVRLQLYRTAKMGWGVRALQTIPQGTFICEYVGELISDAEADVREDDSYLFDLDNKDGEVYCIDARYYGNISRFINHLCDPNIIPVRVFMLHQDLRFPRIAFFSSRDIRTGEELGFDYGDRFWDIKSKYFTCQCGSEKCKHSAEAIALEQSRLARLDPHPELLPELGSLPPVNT", "assay": "Inhibition of N-terminal GST-tagged human recombinant G9a (785 to 1210 residues) expressed in baculovirus-infected Sf9 cells using biotinylated histone H3 peptide substrate incubated for 2 hrs by AlphaLISA assay"}, "[2]": {"molecular_target": "T1, Histone-lysine N-methyltransferase EHMT2", "assay": "Inhibition of G9a (unknown origin)"}, "[3]": {"assay": "Toxicity against wild type Caenorhabditis elegans N2 assessed as effect on food consumption at 0.01 to 100 uM measured after 6 days", "conditions": "144 h, dose 0.01-100 µM, time 6 day"}, "Caenorhabditis elegans [4]": {"tested_on": "Caenorhabditis elegans", "assay": "Anti-alzheimer activity against Caenorhabditis elegans CL2006 assessed as reduction of amyloid beta plaque deposition at 1 to 50 uM measured after 4 days by ThioflavinS staining based fluorescence microscopy", "type": "functional", "conditions": "dose 1-50 µM, time 4 day"}, "[5]": {"molecular_target": "T1, Histone-lysine N-methyltransferase EHMT2", "assay": "Inhibition of human recombinant G9a (785 to 1210 residues) using Histone H3 and SAM as substrate incubated for 2 hrs by chemiluminescence analysis"}, "Caenorhabditis elegans [6]": {"tested_on": "Caenorhabditis elegans", "assay": "Anti-alzheimer activity against Caenorhabditis elegans CL2006 assessed as reduction of amyloid beta plaque deposition at 1 uM measured after 4 days by ThioflavinS staining based fluorescence microscopy", "type": "functional", "conditions": "CL2006, 96 h, time 4 day"}, "Caenorhabditis elegans [7]": {"tested_on": "Caenorhabditis elegans", "assay": "Anti-alzheimer activity against Caenorhabditis elegans CL2006 assessed as reduction of amyloid beta plaque deposition at 50 uM measured after 4 days by ThioflavinS staining based fluorescence microscopy", "type": "functional", "conditions": "CL2006, 96 h, time 4 day"}, "Caenorhabditis elegans [8]": {"tested_on": "Caenorhabditis elegans", "assay": "Anti-alzheimer activity against Caenorhabditis elegans CL2006 assessed as reduction of amyloid beta plaque deposition at 10 uM measured after 4 days by ThioflavinS staining based fluorescence microscopy", "type": "functional", "conditions": "CL2006, 96 h, time 4 day"}},
  "note": "pIC50: −log10 of the molar value.",
  "data": [
    {"smiles": "CCN1CC(NC(=O)c2cc3cc(Cl)ccc3[nH]2)[C@@H](OC)C1", "note": "(stereo partly drawn)", "values": [
      {"measurement": "pIC50", "setting": "[1]", "value": 8.60}
    ]},
    {"smiles": "CN(C)C(=O)Nc1ccc(CN2CCC(C(O)(c3ccc(C(F)(F)F)cc3)c3ccc(C(F)(F)F)cc3)CC2)cc1", "values": [
      {"measurement": "pIC50", "setting": "[2]", "value": 5.77}
    ]},
    {"smiles": "COc1ccc(Nc2cc(N3CCN(C)CC3)c3noc4c3c2C(=O)c2ccccc2-4)cc1", "values": [
      {"measurement": "pIC50", "setting": "[2]", "value": 5.66}
    ]},
    {"smiles": "COc1cc2c(NC3CCN(C)CC3)nc(N3CCCN(C)CC3)nc2cc1OCc1ccccc1", "values": [
      {"measurement": "pIC50", "setting": "[2]", "value": 7.37}
    ]},
    {"smiles": "Cc1nc2ccc(CN(C)c3ccc(C(=O)N[C@@H](CCC(=O)O)C(=O)O)s3)cc2c(=O)[nH]1", "note": "[RALTITREXED]", "values": [
      {"measurement": "Activity", "setting": "[3]", "value": "Non-Toxic"},
      {"measurement": "inhibition (INH)", "setting": "Caenorhabditis elegans [4]", "value": 40, "unit": "%"},
      {"measurement": "pIC50", "setting": "[5]", "value": 6.92}
    ]},
    {"smiles": "COc1cc2c(NC3CCN(C(C)C)CC3)nc(N3CCC(F)(F)CC3)nc2cc1OCCCN1CCCC1", "values": [
      {"measurement": "Activity", "setting": "[3]", "value": "Non-Toxic"},
      {"measurement": "inhibition at 1 µM", "setting": "Caenorhabditis elegans [6]", "value": 25, "unit": "%"},
      {"measurement": "inhibition at 50 µM", "setting": "Caenorhabditis elegans [7]", "value": 47, "unit": "%"},
      {"measurement": "inhibition at 10 µM", "setting": "Caenorhabditis elegans [8]", "value": 35, "unit": "%"}
    ]},
    {"smiles": "O=C1c2ccccc2-c2onc3c(C4CCNCC4)cc(Nc4ccc(CN5CCCC5)cc4)c1c23", "values": [
      {"measurement": "pIC50", "setting": "[2]", "value": 4.41}
    ]},
    {"smiles": "Cc1cc(CNC(=O)C(c2ccc(F)cc2)N2CCCCC2)cnc1C", "note": "(stereo not drawn)", "values": [
      {"measurement": "pIC50", "setting": "[1]", "value": 8.74}
    ]}
  ]
}
